System: OR10Q1-614
Test: Ca-imaging of mutant OR10Q1 in HEK293 cells
Assay type: cell-based, human
Details: 200 μM, applied for 20 seconds
Source text: Mutations were introduced for OR1B1 and OR10Q1 by Overlap Extension PCR (OEP). […] Flanking primers in combination with internal primers provided mutated gene segments, Full length primers included EcoRI and NotI restriction sites for further cloning into pCI expression vector. Site-directed mutations were selected for base of minor allele frequency of nucleotide.
In mutagenesis by overlap extension PCR method, initial PCRs provided mutated gene segments, with overlapping complementary 3′ ends carrying desired point mutation that were then mixed and used as template for a subsequent PCR to generate the full-length product. Overlapping strands of these intermediate products hybridize at this 3′ region in a subsequent PCR and are extended to generate the full-length product amplified by flanking primers; this shown in FIG. 2. […]
Calcium imaging of the transfected HEK293 cells was done by using chambers determinate an inverted microscope (Olympus; IX70) using a 10× objective (CPIanFL N Olympus). Fluorescence emission was determined every 4 s by using a CCD camera (Charge Coupled Device, C9100 Hamamatsu). […] Odorants were manually monitored to drop each 4-5 s to transfected cells. […]
In experiments, Fura-2 Acetoxymethylester (Fura-2/AM) was applied. […] According to this feature, the analysis of 340/380 nm excitation ratio for Fura-2 allows to quantify intracellular calcium levels. […]

SMILES: O=C1CCCCCCCCCCCCCCO1 [Pentadecanolide, ω-cyclopentadecanolide]
- Response of mutated OR10Q1 in comparison with OR10Q1 WT: does not show any significant difference
- Response of mutated OR10Q1 in comparison with OR10Q1 WT (listed as pentadecalactone): did not show any difference
